Laboratory results from patent US20260248762A1, “RRX-001 FOR […]-INFARCT ADVERSE V[…] COMPLICATIONS” (EpicentRx, Inc., priority 2022, published 2026).

Experiments:
Male Wistar rats [1] = test: Acute changes in heart rate during reperfusion, rat myocardial ischemia reperfusion; type: in vivo; conditions: infusion of RRx-001, i.v. in DMSO; in sham animals or relative to animals with I/R; FIG. 1
Description: (§1) Animal experiments were performed in accordance with protocols approved. Male Wistar rats or subjects (about 8-9 weeks old) were purchased from Charles River (San Diego, California) and allowed about 1 week to acclimatize to the new environment prior to random allocation into four groups (n=8 per group). The groups included: a first group 106 (sham), a second group 108 (RRx-001), a third group 110 (RRx-001 I/R), and a fourth group 112 (I/R).
(§2) The first group 106 included sham subjects (e.g., no treatment). The subjects of the second group 108 were given about 5 mg/kg of RRx-001 prepared in dimethyl sulfoxide (DMSO) and administered to the subjects via intravenous administration. The subjects of the second group 108 were not subjected to ischemia. […]
(§3) Regarding the myocardial ischemia reperfusion, the subjects were anesthetized with isoflurane (5% induction and 2% maintenance in 30% oxygen) and placed on a thermal heating pad. […] The knot was removed, the chest was closed, and the hearts of the subjects were monitored for a time period of one hour during reperfusion. […]
FIG. 1 depicts a graph comparing acute changes in heart rate (HR) during reperfusion for various groups of Example 1, according to at least some embodiments disclosed herein. FIG. 1 includes an x-axis 102 associated with time (measured in minutes) and a y-axis 104 associated with HR (measured in beats per minute or “bpm”).

Male Wistar rats [2] = test: Hypotensive effects after RRx-001 treatment; type: in vivo, rat; conditions: treatment after reperfused MI
Description: as §1
as §2, with “ischemia. The subjects of the third group 110 were administered about 0.5 mg/kg of RRx-001 prepared in DMSO via intravenous administration during reperfusion after ischemia. The subjects of the fourth group 112 were untreated, but subjected to ischemia and reperfusion.” for “ischemia.”
as §3

SMILES: O=C(CBr)N1CC([N+](=O)[O-])([N+](=O)[O-])C1 [RRx-001, 2-bromo-1-(3,3-dinitroazetidin-1-yl)ethan-1-one]
- acute changes in heart rate (HR) during reperfusion (Male Wistar rats [1]): did not result in any acute changes in HR
- hypotensive effects (Male Wistar rats [2]): No hypotensive effects were observed
